Values quoted from earlier work as cited in US9624424B2, “Large stokes shift dyes” (LIFE TECHNOLOGIES CORPORATION, priority 2009, dated 2017).

| extinction coefficient around 605 nm (commercial dyes emitting at 750-800 nm) | Compound |
| --- | --- |
| ~15,000 M^−1cm^−1 | CC(C)(C)c1cc(/C=C/C=C/C=C2/N(CCCS(=O)(=O)[O-])c3ccc(S(=O)(=O)[O-])cc3C2(C)CCCC(=O)O)c2ccc(=[N+](CCCS(=O)(=O)[O-])CCCS(=O)(=O)[O-])cc-2o1.[Na+].[Na+].[Na+] (stereo not shown) [Dy734] |
| ~15,000 M^−1cm^−1 | AlexaFluor 750 [AF750] |
| ~15,000 M^−1cm^−1 | CCN1C(=CC=CC=CC=CC2=[N+](CCCCCC(=O)O)c3ccc(S(=O)(=O)O)cc3C2(C)C)C(C)(C)c2cc(S(=O)(=O)[O-])ccc21 [Cy7] |
| ~15,000 M^−1cm^−1 | CCN1c2cc3c(cc2C(C)=CC1(C)C)C(=CC=CC=CC1=[N+](CCCCCC(=O)O)c2ccc(S(=O)(=O)[O-])cc2C1(C)C)C=C(C(C)(C)C)O3 [Dy750] |
